Experimental data published in ChEMBL document CHEMBL1201862, “PubChem BioAssay data set” (2004).
Activity calls are given as the source filed them.

Tests used:
Cytochrome P450 2C9 [1] = molecular target: T1, Cytochrome P450 2C9 (Homo sapiens, UniProt P11712)
[2] = molecular target: UDP-galactopyranose mutase (Mycobacterium tuberculosis, UniProt P9WIQ1); assay: Inhibitors of Mycobacterium tuberculosis UDP-galactopyranose mutase (UGM) enzyme Measured in Biochemical System Using Plate Reader - 2105-02_Inhibitor_Dose_CherryPick_Activity. [Related pubchem assays (depositor defined):AID504439]
Sequence of UDP-galactopyranose mutase (P9WIQ1 whole entry): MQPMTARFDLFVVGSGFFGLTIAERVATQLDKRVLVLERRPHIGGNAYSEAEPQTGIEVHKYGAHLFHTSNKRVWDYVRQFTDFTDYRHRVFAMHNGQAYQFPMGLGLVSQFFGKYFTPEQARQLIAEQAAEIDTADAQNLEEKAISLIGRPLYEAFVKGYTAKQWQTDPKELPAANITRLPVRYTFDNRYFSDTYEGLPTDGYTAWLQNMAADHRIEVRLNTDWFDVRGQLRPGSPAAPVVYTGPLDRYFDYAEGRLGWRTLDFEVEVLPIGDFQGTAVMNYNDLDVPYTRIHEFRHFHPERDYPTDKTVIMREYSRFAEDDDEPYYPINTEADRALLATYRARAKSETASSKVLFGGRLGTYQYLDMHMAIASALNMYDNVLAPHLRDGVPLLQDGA

[3] = insulin promoter down-regulators in MIN6 cells, imaging, high-content screening, mouse beta cells (AID 1628); assay type: functional
[4] = cytotoxicity in MIN6 insulinoma cells, dose response, cytotoxicity control, cell-based, mouse insulinoma (AID 2122); assay type: functional;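 note: confirmatory high-throughput counterscreen run to flag cytotoxic compounds; mouse MIN-6 beta cells carrying an insulin promoter eGFP reporter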
[5] = growth induction of Burl-1 ts yeast mutant, dose response, counter-screen for SUMOylation pathway inhibitor project, whole organism, S. cerevisiae, luminescence (AID 463199); assay type: functional
[6] = A cytotoxicity screen of small molecule inhibitors of the PhoP region in Salmonella typhi identified in the primary screen. [Related pubchem assays: 1850, 1864, 1985 ]; assay type: functional
Cytochrome P450 2C19 = Cytochrome P450 2C19 (Homo sapiens, UniProt P33261); assay: Cytochrome panel assay with activity outcomes. Panel member name: p450-cyp2c19 Compounds with AC50 equal or less than 10 uM are considered active; assay type: functional; details: read-out: AC50
Sequence of Cytochrome P450 2C19 (P33261 whole entry): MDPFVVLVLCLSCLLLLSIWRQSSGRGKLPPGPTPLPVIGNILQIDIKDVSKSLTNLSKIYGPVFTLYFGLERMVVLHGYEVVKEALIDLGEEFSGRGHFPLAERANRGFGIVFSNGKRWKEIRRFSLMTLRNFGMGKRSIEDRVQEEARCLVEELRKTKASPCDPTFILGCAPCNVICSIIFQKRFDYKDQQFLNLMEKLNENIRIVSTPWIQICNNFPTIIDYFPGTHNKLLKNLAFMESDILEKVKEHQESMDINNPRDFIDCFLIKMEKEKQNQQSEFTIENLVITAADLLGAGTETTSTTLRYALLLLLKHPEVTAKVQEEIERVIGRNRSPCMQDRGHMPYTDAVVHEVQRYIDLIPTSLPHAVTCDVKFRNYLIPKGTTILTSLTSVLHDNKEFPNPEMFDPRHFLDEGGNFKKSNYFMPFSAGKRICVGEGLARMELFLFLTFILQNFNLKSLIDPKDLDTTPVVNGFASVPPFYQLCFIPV

Cytochrome P450 2C9 [7] = molecular target: T1, Cytochrome P450 2C9; remark: listed apart in the source
Cytochrome P450 1A2 = molecular target: T2, Cytochrome P450 1A2 (Homo sapiens, UniProt P05177);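 note: PubChem cytochrome P450 panel assay, CYP1A2 panel member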
T2 sequence (P05177 whole entry): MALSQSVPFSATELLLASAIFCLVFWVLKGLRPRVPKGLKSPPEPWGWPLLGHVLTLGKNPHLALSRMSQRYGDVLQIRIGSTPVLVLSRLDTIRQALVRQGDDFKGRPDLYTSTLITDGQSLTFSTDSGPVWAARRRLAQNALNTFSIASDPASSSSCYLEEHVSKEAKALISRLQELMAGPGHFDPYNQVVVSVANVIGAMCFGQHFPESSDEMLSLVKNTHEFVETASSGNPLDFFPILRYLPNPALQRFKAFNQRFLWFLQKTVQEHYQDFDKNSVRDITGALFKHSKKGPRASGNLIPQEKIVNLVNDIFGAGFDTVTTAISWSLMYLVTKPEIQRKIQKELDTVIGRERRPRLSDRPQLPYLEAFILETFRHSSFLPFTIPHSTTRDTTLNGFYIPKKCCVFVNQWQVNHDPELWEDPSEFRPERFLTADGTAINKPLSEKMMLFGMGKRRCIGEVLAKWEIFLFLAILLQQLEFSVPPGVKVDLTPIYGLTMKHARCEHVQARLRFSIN

Cytochrome P450 2D6 = Cytochrome P450 2D6 (Homo sapiens, UniProt P10635);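 note: CYP2D6 member of a cytochrome P450 panel assay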
Sequence of Cytochrome P450 2D6 (P10635 whole entry): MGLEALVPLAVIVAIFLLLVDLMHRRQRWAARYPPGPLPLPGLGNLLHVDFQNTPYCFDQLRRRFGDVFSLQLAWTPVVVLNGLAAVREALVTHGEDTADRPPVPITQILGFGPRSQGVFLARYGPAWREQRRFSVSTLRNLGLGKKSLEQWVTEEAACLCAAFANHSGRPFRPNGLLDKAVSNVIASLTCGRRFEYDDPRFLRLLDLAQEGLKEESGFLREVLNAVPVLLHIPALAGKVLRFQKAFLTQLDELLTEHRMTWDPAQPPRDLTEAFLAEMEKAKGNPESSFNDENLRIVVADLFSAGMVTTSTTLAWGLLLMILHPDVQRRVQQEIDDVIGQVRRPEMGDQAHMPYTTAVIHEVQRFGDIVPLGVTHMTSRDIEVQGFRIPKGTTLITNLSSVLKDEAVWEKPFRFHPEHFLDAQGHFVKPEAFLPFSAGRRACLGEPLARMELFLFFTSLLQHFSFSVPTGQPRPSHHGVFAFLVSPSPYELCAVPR

[8] = molecular target: T3, Intestinal-type alkaline phosphatase (Homo sapiens, UniProt P09923); assay: human intestinal alkaline phosphatase activators, dose response, biochemical, luminescence, uHTS hits (AID 463120); assay type: functional
T3 sequence (P09923 whole entry): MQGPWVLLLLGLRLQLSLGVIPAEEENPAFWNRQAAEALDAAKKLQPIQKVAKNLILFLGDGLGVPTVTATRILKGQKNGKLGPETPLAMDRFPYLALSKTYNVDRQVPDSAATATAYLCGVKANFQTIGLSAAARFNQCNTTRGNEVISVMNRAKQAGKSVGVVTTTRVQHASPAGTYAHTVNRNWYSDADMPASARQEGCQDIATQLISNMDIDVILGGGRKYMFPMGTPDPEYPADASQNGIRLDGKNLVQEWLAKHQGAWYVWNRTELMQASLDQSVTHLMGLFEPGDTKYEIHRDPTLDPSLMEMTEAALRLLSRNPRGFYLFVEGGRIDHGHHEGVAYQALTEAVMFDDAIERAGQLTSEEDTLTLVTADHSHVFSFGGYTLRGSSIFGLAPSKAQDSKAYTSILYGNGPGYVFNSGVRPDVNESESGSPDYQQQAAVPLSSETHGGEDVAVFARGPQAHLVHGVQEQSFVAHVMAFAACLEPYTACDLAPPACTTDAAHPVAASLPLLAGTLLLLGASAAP

[9] = molecular target: T3, Intestinal-type alkaline phosphatase; assay: human IAP activators, dose response, biochemical, luminescent, uHTS hits, set 2 (AID 488817); assay type: functional;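 note: potency of activators that raise enzyme activity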
[10] = molecular target: T4, Alkaline phosphatase, tissue-nonspecific isozyme (Homo sapiens, UniProt P05186); assay: TNAP enzyme activators, dose response, selectivity assay for human IAP activator project, biochemical, TNAP isozyme, human IAP uHTS hits (AID 488886); assay type: functional;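 note: potency of compounds raising TNAP activity as a selectivity check on IAP activators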
T4 sequence (P05186 whole entry): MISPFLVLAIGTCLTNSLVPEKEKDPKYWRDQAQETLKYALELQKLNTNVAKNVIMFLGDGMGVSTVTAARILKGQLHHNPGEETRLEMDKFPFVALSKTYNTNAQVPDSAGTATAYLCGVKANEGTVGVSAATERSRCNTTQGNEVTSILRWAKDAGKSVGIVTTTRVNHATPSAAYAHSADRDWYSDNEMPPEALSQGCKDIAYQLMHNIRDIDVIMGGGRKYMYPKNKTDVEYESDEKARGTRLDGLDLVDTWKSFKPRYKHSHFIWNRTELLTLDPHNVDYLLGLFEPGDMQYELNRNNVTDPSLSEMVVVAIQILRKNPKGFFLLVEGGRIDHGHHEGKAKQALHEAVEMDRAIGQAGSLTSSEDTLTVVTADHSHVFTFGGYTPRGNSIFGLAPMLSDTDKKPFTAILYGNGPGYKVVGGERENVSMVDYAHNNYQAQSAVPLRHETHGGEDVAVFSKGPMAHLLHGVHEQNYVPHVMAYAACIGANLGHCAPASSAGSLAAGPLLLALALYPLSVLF

[11] = molecular target: T5, Intestinal-type alkaline phosphatase (Mus musculus, UniProt P24822); assay: PubChem AID 488875; assay type: functional
T5 sequence (P24822 whole entry): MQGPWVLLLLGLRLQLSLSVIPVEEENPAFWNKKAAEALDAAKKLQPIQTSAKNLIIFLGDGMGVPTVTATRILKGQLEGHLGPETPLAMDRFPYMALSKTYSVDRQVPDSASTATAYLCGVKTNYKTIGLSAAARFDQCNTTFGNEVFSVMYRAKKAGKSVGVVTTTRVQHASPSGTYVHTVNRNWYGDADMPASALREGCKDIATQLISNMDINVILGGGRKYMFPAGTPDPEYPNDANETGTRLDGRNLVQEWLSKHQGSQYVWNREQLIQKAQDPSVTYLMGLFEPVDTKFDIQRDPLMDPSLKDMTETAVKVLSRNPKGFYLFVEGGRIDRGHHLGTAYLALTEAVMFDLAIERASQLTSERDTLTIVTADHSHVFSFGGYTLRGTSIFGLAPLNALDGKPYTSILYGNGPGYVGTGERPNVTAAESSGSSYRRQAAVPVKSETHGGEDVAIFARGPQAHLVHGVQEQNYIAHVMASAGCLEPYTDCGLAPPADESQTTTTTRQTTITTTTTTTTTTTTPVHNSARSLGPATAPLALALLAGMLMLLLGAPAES

HEK293 = assay: cells; details: Homo sapiens;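 note: cells exposed to compound for 14 hours overnight before viability readout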
Tumor necrosis factor = Tumor necrosis factor (Homo sapiens, UniProt P01375); assay: TNFa-triggered NF-kB activation inhibitors, SAR follow-up, cell-based, revised (AID 2337); assay type: functional
Sequence of Tumor necrosis factor (P01375 whole entry, the tested form may be a part): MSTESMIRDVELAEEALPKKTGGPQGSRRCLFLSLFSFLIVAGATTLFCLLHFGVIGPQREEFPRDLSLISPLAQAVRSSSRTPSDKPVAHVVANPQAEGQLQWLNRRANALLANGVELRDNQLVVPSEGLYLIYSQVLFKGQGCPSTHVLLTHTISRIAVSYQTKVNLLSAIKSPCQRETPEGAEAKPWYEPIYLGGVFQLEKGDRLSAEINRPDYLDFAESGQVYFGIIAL

[12] = molecular target: Nucleotide-binding oligomerization domain-containing protein 1 (Homo sapiens, UniProt Q9Y239); assay: NOD1 signaling inhibitors, SAR follow-up, revised (AID 2333); assay type: functional
Sequence of Nucleotide-binding oligomerization domain-containing protein 1 (Q9Y239 whole entry, the tested form may be a part): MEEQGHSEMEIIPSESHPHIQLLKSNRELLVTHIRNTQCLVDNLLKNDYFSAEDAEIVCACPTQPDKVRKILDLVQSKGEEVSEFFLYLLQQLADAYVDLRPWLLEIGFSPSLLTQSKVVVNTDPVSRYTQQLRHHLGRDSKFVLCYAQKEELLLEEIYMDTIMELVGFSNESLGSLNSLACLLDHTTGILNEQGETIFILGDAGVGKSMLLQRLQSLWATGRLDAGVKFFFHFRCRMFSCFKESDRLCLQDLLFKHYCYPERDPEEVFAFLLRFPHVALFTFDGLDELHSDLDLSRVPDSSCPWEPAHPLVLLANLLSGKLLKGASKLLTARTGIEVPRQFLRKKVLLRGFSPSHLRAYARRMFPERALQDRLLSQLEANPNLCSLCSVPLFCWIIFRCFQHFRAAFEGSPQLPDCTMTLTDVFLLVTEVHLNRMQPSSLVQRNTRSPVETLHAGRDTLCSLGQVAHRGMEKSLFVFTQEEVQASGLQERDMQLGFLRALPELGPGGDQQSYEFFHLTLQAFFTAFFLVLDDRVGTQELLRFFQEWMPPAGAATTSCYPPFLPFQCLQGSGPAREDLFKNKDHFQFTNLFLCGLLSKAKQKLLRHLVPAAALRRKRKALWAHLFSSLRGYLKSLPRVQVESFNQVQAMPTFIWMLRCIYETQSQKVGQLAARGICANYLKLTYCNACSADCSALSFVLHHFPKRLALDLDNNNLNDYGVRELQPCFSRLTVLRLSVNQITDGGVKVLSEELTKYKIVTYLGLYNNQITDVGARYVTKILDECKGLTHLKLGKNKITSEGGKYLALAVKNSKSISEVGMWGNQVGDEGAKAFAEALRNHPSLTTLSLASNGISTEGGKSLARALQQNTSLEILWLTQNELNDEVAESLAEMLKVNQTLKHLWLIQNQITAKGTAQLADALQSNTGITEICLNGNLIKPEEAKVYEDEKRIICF

[13] = inhibitors of cytokine-induced nitrite release, dose response, cell-based, Griess absorbance, INS-1E, dry powder, set 3 (AID 488870); assay type: functional; details: Rattus norvegicus
[14] = molecular target: T6, Apoptotic protease-activating factor 1 (Homo sapiens, UniProt O14727); assay: activation of Apaf-1 mediated apoptosis – fluorescent, uHTS hits, dose response (AID 588554); assay type: functional
T6 sequence (O14727 whole entry): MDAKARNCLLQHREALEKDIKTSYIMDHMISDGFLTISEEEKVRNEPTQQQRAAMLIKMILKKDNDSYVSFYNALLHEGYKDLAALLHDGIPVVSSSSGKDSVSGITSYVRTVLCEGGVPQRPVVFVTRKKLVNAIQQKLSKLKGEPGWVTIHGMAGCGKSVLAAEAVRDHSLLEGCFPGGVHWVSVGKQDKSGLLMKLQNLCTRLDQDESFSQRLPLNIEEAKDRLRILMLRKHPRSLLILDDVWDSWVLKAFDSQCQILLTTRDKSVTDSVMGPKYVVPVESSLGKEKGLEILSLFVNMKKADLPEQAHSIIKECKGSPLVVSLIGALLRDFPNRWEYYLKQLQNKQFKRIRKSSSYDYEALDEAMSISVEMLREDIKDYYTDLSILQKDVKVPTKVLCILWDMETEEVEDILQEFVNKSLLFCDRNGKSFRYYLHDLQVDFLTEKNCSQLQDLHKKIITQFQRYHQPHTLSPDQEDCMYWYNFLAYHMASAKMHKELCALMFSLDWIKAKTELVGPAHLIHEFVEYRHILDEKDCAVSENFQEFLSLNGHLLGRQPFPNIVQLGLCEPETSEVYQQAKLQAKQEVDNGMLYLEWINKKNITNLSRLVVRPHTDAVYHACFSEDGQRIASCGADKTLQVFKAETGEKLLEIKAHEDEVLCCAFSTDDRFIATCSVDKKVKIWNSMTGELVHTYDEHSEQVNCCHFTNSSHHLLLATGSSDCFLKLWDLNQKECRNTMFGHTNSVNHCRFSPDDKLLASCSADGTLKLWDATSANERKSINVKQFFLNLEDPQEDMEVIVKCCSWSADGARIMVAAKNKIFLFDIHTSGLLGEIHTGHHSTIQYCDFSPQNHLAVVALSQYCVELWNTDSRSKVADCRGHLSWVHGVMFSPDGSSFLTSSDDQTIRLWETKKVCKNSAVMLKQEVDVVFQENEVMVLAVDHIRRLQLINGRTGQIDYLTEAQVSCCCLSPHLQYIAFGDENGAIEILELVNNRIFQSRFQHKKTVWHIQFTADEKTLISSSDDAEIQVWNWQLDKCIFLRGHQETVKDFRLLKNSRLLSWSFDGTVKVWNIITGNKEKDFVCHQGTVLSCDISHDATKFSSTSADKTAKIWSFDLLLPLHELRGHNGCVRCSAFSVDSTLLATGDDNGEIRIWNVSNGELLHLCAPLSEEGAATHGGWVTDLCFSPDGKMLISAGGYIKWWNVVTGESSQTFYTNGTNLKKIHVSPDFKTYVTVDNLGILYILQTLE

[15] = molecular target: Envelope glycoprotein gp160 (Human immunodeficiency virus 1, UniProt Q6QLK5); assay: inhibitors of HIV fusion peptide binding, primary screen, biochemical, uHTS, fluorescence dequenching (AID 1986)
[16] = molecular target: T5, Intestinal-type alkaline phosphatase; assay: PubChem AID 488785; assay type: functional
[17] = molecular target: Induced myeloid leukemia cell differentiation protein Mcl-1 (Homo sapiens, UniProt Q07820); assay: MCL1-BIM BH3 interaction inhibitors, dose response, biochemical, fluorescence polarization, BIM-BH3 peptide, 1536-well (AID 2217)
Sequence of Induced myeloid leukemia cell differentiation protein Mcl-1 (Q07820 whole entry): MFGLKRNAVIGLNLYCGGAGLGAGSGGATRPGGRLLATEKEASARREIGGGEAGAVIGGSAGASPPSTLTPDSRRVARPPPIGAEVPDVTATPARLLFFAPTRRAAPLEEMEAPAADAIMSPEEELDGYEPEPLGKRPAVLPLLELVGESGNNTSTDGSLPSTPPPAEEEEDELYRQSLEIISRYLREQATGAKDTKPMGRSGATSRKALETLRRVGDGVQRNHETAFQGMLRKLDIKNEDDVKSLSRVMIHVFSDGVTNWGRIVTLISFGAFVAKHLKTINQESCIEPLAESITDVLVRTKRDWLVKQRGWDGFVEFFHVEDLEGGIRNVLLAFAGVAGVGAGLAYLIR

[18] = molecular target: T3, Intestinal-type alkaline phosphatase; assay: inhibition of human intestinal alkaline phosphatase – biochemical, dose response (AID 488876); assay type: functional
[19] = molecular target: T4, Alkaline phosphatase, tissue-nonspecific isozyme; assay: TNAP enzyme inhibition by screening hits, dose response, selectivity assay for mouse IAP inhibitor project, biochemical, human TNAP, uHTS hits (AID 488906); assay type: functional
Aminopeptidase N = molecular target: T7, Aminopeptidase N (Plasmodium falciparum FcB1/Columbia, UniProt O96935); assay: P. falciparum M1AAP inhibitors, biochemical, fluorogenic H-Leu-NHMec substrate, 1536-well (AID 1445); set-up: species or system Plasmodium falciparum 3D7, 3D7
T7 sequence (O96935 whole entry): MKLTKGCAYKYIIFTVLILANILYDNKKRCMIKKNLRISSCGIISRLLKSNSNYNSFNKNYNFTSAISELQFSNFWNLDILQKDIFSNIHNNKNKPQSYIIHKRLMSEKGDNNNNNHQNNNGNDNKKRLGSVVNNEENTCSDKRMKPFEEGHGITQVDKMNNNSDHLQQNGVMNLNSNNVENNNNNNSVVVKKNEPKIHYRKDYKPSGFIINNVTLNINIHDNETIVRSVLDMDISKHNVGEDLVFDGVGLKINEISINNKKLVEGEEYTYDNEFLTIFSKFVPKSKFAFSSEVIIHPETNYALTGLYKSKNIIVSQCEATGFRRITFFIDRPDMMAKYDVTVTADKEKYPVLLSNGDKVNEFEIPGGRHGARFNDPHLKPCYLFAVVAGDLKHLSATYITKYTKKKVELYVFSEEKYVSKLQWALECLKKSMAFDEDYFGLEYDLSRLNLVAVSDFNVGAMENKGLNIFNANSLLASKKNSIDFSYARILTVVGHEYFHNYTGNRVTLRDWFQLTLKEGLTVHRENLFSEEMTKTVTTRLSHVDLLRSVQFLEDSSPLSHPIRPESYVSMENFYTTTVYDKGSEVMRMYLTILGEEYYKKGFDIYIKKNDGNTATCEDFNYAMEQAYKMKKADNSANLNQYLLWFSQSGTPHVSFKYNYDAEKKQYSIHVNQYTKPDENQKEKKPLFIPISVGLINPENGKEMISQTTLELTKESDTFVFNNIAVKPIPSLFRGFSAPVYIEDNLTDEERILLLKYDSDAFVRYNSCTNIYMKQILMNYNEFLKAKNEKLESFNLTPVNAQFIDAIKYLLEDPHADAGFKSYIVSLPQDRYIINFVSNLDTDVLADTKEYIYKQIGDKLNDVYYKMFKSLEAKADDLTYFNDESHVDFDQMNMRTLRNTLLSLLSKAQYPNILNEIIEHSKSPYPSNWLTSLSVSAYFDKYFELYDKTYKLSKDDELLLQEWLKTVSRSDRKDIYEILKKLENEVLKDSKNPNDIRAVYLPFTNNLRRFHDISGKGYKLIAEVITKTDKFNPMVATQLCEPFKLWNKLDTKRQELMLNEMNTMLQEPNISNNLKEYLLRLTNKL

Bcl-2-like protein 1 = Bcl-2-like protein 1 (Homo sapiens, UniProt Q07817); assay: BCL-XL inhibitors, dose response, selectivity assay for MCL1 inhibitor project, biochemical, fluorescence polarization, 1536-well (AID 2218)
Sequence of Bcl-2-like protein 1 (Q07817 whole entry): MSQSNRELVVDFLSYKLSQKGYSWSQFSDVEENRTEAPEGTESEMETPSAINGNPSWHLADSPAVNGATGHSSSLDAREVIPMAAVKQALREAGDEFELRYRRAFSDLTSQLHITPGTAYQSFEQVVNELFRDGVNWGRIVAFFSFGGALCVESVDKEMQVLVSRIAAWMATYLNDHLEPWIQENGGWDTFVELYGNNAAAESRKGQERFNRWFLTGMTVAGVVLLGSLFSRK

T1 sequence (P11712 whole entry): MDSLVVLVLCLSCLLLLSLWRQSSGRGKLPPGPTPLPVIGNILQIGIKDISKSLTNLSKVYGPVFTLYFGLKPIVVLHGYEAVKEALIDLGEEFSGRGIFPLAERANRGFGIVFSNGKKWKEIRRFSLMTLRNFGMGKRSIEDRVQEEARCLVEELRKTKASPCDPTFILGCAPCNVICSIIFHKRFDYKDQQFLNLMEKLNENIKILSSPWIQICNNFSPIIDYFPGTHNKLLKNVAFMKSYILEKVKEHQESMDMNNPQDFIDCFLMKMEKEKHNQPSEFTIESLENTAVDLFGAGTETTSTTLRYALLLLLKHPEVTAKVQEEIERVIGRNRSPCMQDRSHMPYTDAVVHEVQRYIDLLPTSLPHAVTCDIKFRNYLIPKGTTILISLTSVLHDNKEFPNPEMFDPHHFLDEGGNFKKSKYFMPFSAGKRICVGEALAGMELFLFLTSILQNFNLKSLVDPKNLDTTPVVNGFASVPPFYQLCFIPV

Cc1ccc(NC(=O)c2nnn(-c3cc(C)cc(C)c3)c2N)cc1
AC50 (Cytochrome P450 2C9 [1]): inconclusive

CCCCCCNC(=O)C(C#N)c1nc2ccccc2nc1N1CCOCC1 (stereo unspecified)
AC50 [2]: 70 µM (active)

CN1CCN(Cc2ccc(OCc3ccccc3)cc2)CC1
IC50 [3]: 3.08 µM (active) | IC50 [4]: 1.8 µM (active)

CC1CCN(CCCCOc2ccc(Cl)cc2)CC1
AC50 [5]: 46.3 µM (active) | EC50 [6]: > 50 µM (active)

COC(=O)[C@@]1(Cc2ccc(F)cc2)[C@@H]2[C@@H](CC(=O)[C@H]2CC(=O)C(=O)N2CCCC2)CN1C(=O)c1ccccc1
AC50 (Cytochrome P450 2C19): 15.8 µM (inconclusive) | AC50 (Cytochrome P450 2C9 [7]): 39.8 µM (inconclusive) | AC50 (Cytochrome P450 1A2): inconclusive

COc1ccccc1NC(=O)c1nc[nH]c1C(=O)Nc1ccccc1OC
AC50 (Cytochrome P450 2D6): inconclusive

COc1cc(NC(=O)NCC2CCN(Cc3ccccc3C)CC2)cc(OC)c1OC
EC50 [8]: 70 µM (active) | EC50 [9]: 64.7 µM (active) | EC50 [10]: 73.9 µM (active) | EC50 [11]: 52.6 µM (active)

O=C(Nc1ccc(OC(F)(F)F)cc1)c1ccc(CN2CCc3ccccc3C2)cc1
IC50 (HEK293): > 20 µM (inactive) | IC50 (Tumor necrosis factor): 0.0244 µM (active) | IC50 [12]: < 0.0391 µM (active)

C[C@@H]1CN([C@@H](C)CO)C(=O)c2cccc(NC(=O)Nc3cccc4ccccc34)c2O[C@H]1CN(C)C(=O)Nc1ccc2c(c1)OCO2
AC50 [13]: 51.5 µM (active)

O=C(O)CCN1C(=O)/C(=C\c2ccc(OCc3ccccc3)c(OCc3ccccc3)c2)SC1=S
EC50 [14]: 18.7 µM (active) | IC50 [15]: 10.2 µM (active)

Nc1nnc(CC(=O)N/N=C/c2cc([N+](=O)[O-])cc(Br)c2O)s1
IC50 [16]: 2.79 µM (active) | IC50 [17]: 23.1 µM (not active) | IC50 [18]: > 100 µM (inactive) | IC50 [19]: 20.6 µM (active) | IC50 (Aminopeptidase N): 30 µM (active) | IC50 (Bcl-2-like protein 1): > 109 µM (not active)
